We go through 26 compounds from patent publication US12291516B2, “Substituted 1-amino-1H-imidazole-5-carboxamide as Bruton's tyrosine kinase inhibitors” (Henan Zhiwei Biomedicine Co., Ltd., priority 2019, dated 2025).

A word on the IC50: it is the concentration that gives 50% inhibition.

The experiment addresses BTK (Homo sapiens (Human), UniProt Q06187). Briefly: In house ELISA kinase inhibition assay, BTK. The format is biochemical. The conditions noted are these: footnote b: from in house procedure (ELISA). As to the method:
BTK inhibition Assay and selectivity Assay The assay was conducted either a by a third party (Reaction Biology Corporation, PA, USA) or in house.
b) In House Procedure for BTK, BMX, EGFR and ITK:
Kinase inhibitory activities of compounds were evaluated using the Enzyme-linked immunosorbent assay (ELISA). The kinase enzyme of BTK, BMX, EGFR and ITK were purchased from Carna Bioscience (Kobe, Japan). A total of 10 ng/mL antiphosphotyrosine (PY713) antibody (abcam, Cambridge Science Park, UK) was precoated in 96-well ELISA plates. The kinase enzymes in each reaction well were set to BTK (101.25 ng/mL), BMX (90 ng/mL), EGFR (90 ng/mL) or ITK (120 ng/mL) and incubated with indicated drugs in 1× reaction buffer (50 mmol/L HEPES pH 7.4, 20 mmol/L MgCl2, 0.1 mmol/L MnCl2, 1 mmol/L DTT) containing 20 μmol/L (the final concentration of substrate in ITK reaction was 30 μmol/L) substrate (NH2-[…]-biotin) at 25° C. for 1 h. Then, a total of 3 μmol/L ATP was added and the reaction was continued for 2 h. The products of reaction were transferred into 96-well ELISA plates containing antibody and incubated at 25° C. for 30 min. After incubation, the wells were washed with PBS and then incubated with horseradish peroxidase (HRP)-conjugated streptavidin. The wells were visualized using 3,3′,5,5′-tetramethylbenzidine (TMB), and chromogenic reaction was ended with 2 mol/L H2SO4, the absorbance was read with a multimode plate reader (PerkinElmer, USA) at 450 nm. IC50 values and curve fits were obtained using Prism (GraphPad Software). (Table I-IV)
In general terms: ELISA stands for enzyme-linked immunosorbent assay.

Sequence of BTK (Q06187 whole entry): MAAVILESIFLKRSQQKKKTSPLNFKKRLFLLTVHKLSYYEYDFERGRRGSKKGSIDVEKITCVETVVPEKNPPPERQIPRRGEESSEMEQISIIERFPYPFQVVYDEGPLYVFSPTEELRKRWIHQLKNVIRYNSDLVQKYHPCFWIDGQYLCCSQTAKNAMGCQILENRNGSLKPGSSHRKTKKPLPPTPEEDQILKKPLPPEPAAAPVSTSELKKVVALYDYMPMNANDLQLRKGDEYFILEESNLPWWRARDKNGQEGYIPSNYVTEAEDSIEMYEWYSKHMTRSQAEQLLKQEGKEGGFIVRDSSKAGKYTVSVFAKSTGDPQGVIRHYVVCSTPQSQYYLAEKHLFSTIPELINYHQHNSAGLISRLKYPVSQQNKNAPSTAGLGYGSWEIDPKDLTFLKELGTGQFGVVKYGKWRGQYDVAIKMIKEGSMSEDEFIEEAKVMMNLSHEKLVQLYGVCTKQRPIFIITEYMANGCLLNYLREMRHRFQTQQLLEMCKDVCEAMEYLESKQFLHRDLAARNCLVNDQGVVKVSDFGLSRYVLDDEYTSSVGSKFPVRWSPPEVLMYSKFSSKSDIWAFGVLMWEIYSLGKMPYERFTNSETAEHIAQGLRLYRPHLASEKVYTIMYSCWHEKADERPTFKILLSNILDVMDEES

Turning to `C=CC(=O)N1CCC[C@H]1c1nc(-c2ccc(C(=O)Nc3cc(C(F)(F)F)ccn3)cc2)c(C(N)=O)n1N` [Example 42, (S)-2-(1-acryloylpyrrolidin-2-yl)-1-amino-4-(4-((4-(trifluoromethyl)pyridin-2-yl)carbamoyl)phenyl)-1H-imidazole-5-carboxamide], half-maximal inhibition (IC50) was put at 48 nM. The compound `CC#CC(=O)N1CCC[C@H]1c1nc(-c2ccc(C(=O)Nc3cc(OC)ccn3)cc2)c(C(N)=O)n1N` [Example 34, (S)-1-amino-2-(1-(but-2-ynoyl)pyrrolidin-2-yl)-4-(4-((4-methoxy-pyridin-2-yl)carbamoyl)phenyl)-1H-imidazole-5-carboxamide] showed a concentration for half-maximal inhibition (IC50) of 1670 nM. Under `CC#CC(=O)N1CCCC[C@H]1c1nc(-c2ccc(C(=O)Nc3cc(C#N)ccn3)cc2)c(C(N)=O)n1N` [Example 82, (S)-1-amino-2-(1-(but-2-ynoyl)piperidin-2-yl)-4-(4-((4-cyanopyridin-2-yl)carbamoyl)phenyl)-1H-imidazole-5-carboxamide] stands 45.6 nM; under `CC#CC(=O)N1CCCC[C@H]1c1nc(-c2ccc(C(=O)Nc3cc(C)c(F)cn3)cc2)c(C(N)=O)n1N` [Example 108, (S)-1-amino-2-(1-(but-2-ynoyl)piperidin-2-yl)-4-(4-((5-fluoro-4-methylpyridin-2-yl)carbamoyl)phenyl)-1H-imidazole-5-carboxamide], 121 nM.

Turning to `CC#CC(=O)N1CCCC[C@H]1c1nc(-c2ccc(C(=O)Nc3ccc(C)cn3)cc2)c(C(N)=O)n1N` [Example 64, (S)-1-amino-2-(1-(but-2-ynoyl)piperidin-2-yl)-4-(4-((5-methylpyridin-2-yl)carbamoyl)phenyl)-1H-imidazole-5-carboxamide], the IC50 stood at 129 nM. Consider `CCc1ccnc(NC(=O)c2ccc(-c3nc([C@@H]4CCCCN4C(=O)/C(C#N)=C/C4CC4)n(N)c3C(N)=O)cc2)c1` [Example 78, (S,E)-1-amino-2-(1-(2-cyano-3-cyclopropylacryloyl)piperidin-2-yl)-4-(4-((4-ethylpyridin-2-yl)carbamoyl)phenyl)-1H-imidazole-5-carboxamide], for which the concentration for half-maximal inhibition (IC50) was 6560 nM. The compound `CC#CC(=O)N1CCCC[C@H]1c1nc(-c2ccc(C(=O)Nc3cc(-c4ccc(C#N)cc4)ccn3)cc2)c(C(N)=O)n1N` [Example 112, (S)-1-amino-2-(1-(but-2-ynoyl)piperidin-2-yl)-4-(4-((4-(4-cyanophenyl)pyridin-2-yl)carbamoyl)phenyl)-1H-imidazole-5-carboxamide] yielded an IC50 of 22.8 nM. As to `C=CC(=O)N1CCCC[C@H]1c1nc(-c2ccc(C(=O)Nc3cc(-c4ccc(Cl)cc4)ccn3)cc2)c(C(N)=O)n1N` [Example 109, (S)-2-(1-acryloylpiperidin-2-yl)-1-amino-4-(4-((4-(4-chlorophenyl)pyridin-2-yl)carbamoyl)phenyl)-1H-imidazole-5-carboxamide], the IC50 is 1.9 nM.

As for `CC#CC(=O)N1CCCC[C@H]1c1nc(-c2ccc(C(=O)Nc3cc(-c4ccc(Cl)cc4)ccn3)cc2)c(C(N)=O)n1N` [Example 110, (S)-1-amino-2-(1-(but-2-ynoyl)piperidin-2-yl)-4-(4-((4-(4-chlorophenyl)pyridin-2-yl)carbamoyl)phenyl)-1H-imidazole-5-carboxamide], the half-maximal inhibitory concentration (IC50) came out at 14.8 nM. On to `C#CC(=O)N1CCCC[C@H]1c1nc(-c2ccc(C(=O)Nc3cc(CC)ccn3)cc2)c(C(N)=O)n1N` [Example 100, (S)-1-amino-4-(4-((4-ethylpyridin-2-yl)carbamoyl)phenyl)-2-(1-propioloylpiperidin-2-yl)-1H-imidazole-5-carboxamide], for which the 50% inhibitory concentration (IC50) is 9.99 nM. With `C#CC(=O)N1CCCC[C@H]1c1nc(-c2ccc(C(=O)Nc3cc(OC)ccn3)cc2)c(C(N)=O)n1N` [Example 97, (S)-1-amino-4-(4-((4-methoxypyridin-2-yl)carbamoyl)phenyl)-2-(1-propioloylpiperidin-2-yl)-1H-imidazole-5-carboxamide], the midpoint of inhibition, the IC50, lay at 9.22 nM. The same measure for `C=CC(=O)N1CCC[C@H]1c1nc(-c2ccc(C(=O)Nc3cc(C)ccn3)cc2)c(C(N)=O)n1NC` [Example 45, (S)-2-(1-acryloylpyrrolidin-2-yl)-1-(methylamino)-4-(4-((4-methyl-pyridin-2-yl)carbamoyl)phenyl)-1H-imidazole-5-carboxamide]: 58.2 nM. `C#CC(=O)N1CCCC[C@H]1c1nc(-c2ccc(C(=O)Nc3cc(Cl)ccn3)cc2)c(C(N)=O)n1N` [Example 99, (S)-1-amino-4-(4-((4-chloropyridin-2-yl)carbamoyl)phenyl)-2-(1-propioloylpiperidin-2-yl)-1H-imidazole-5-carboxamide] had an IC50 of 2.78 nM. The same measure for `C=CC(=O)N1CCCC[C@H]1c1nc(-c2ccc(C(=O)Nc3cc(F)ccn3)cc2)c(C(N)=O)n1N` [Example 106, (S)-2-(1-acryloylpiperidin-2-yl)-1-amino-4-(4-((4-fluoropyridin-2-yl)carbamoyl)phenyl)-1H-imidazole-5-carboxamide]: 15 nM. `CC#CC(=O)N1CCC[C@H]1c1nc(-c2ccc(C(=O)Nc3cc(F)ccn3)cc2)c(C(N)=O)n1N` [Example 41, (S)-1-amino-2-(1-(but-2-ynoyl)pyrrolidin-2-yl)-4-(4-((4-fluoropyridin-2-yl)carbamoyl)phenyl)-1H-imidazole-5-carboxamide] registered an IC50 of 1680 nM. The same measure for `C=CC(=O)N1CCCCCC1c1nc(-c2ccc(C(=O)Nc3cc(CC)ccn3)cc2)c(C(N)=O)n1N` (centres unmarked) [Example 94, 2-(1-acryloylazepan-2-yl)-1-amino-4-(4-((4-ethylpyridin-2-yl)carbamoyl)phenyl)-1H-imidazole-5-carboxamide]: 226 nM; for `CC#CC(=O)N1CCC[C@H]1c1nc(-c2ccc(C(=O)Nc3ccc(C)cn3)cc2)c(C(N)=O)n1N` [Example 27, (S)-1-amino-2-(1-(but-2-ynoyl)pyrrolidin-2-yl)-4-(4-((5-methylpyridin-2-yl)carbamoyl)phenyl)-1H-imidazole-5-carboxamide]: 2060 nM; for `C=CC(=O)N1CCC[C@H]1c1nc(-c2ccc(C(=O)Nc3cc(CC)ccn3)cc2)c(C(N)=O)n1N` [Example 35, (S)-2-(1-acryloylpyrrolidin-2-yl)-1-amino-4-(4-((4-ethylpyridin-2-yl)carbamoyl)phenyl)-1H-imidazole-5-carboxamide]: 33 nM.

With `C=CC(=O)N1CCCC[C@H]1c1nc(-c2ccc(C(=O)Nc3cc(C)ccn3)cc2)c(C(N)=O)n1N` [Example 53, (S)-2-(1-acryloylpiperidin-2-yl)-1-amino-4-(4-((4-methylpyridin-2-yl)carbamoyl)phenyl)-1H-imidazole-5-carboxamide], the concentration for half-maximal inhibition (IC50) amounted to 18.1 nM.

Compound `C=CC(=O)N1CCC[C@H]1c1nc(-c2ccc(C(=O)Nc3cc(C)ccn3)cc2)c(C(N)=O)n1N` [Example 10, (S)-2-(1-acryloylpyrrolidin-2-yl)-1-amino-4-(4-((4-methylpyridin-2-yl)carbamoyl)phenyl)-1H-imidazole-5-carboxamide] showed a 50% inhibitory concentration (IC50) of 79 nM. Compound `CC#CC(=O)N1CCCC[C@H]1c1nc(-c2ccc(C(=O)Nc3cc(CC)ccn3)cc2)c(C(N)=O)n1N` [Example 77, (S)-1-amino-2-(1-(but-2-ynoyl)piperidin-2-yl)-4-(4-((4-ethylpyridin-2-yl)carbamoyl)phenyl)-1H-imidazole-5-carboxamide] yielded an IC50 of 17.9 nM. Consider `C=CC(=O)N1CCC[C@H]1c1nc(-c2ccc(C(=O)Nc3cc(C(C)C)ccn3)cc2)c(C(N)=O)n1N` [Example 44, (S)-2-(1-acryloylpyrrolidin-2-yl)-1-amino-4-(4-((4-isopropylpyridin-2-yl)carbamoyl)phenyl)-1H-imidazole-5-carboxamide], for which inhibition was half-maximal at 122 nM (IC50).

Regarding `C=CC(=O)N1CCCC[C@H]1c1nc(-c2ccc(C(=O)Nc3cc(OC)ccn3)cc2)c(C(N)=O)n1N` [Example 67, (S)-2-(1-acryloylpiperidin-2-yl)-1-amino-4-(4-((4-methoxypyridin-2-yl)carbamoyl)phenyl)-1H-imidazole-5-carboxamide], the half-inhibitory concentration (IC50) was found to be 9.12 nM. Under `C=CC(=O)N1CCCC[C@H]1c1nc(-c2ccc(C(=O)Nc3ccc(C)cn3)cc2)c(C(N)=O)n1N` [Example 61, (S)-2-(1-acryloylpiperidin-2-yl)-1-amino-4-(4-((5-methylpyridin-2-yl)carbamoyl)phenyl)-1H-imidazole-5-carboxamide] stands 18.4 nM; under `CC#CC(=O)N1CCC[C@H]1c1nc(-c2ccc(C(=O)Nc3cc(CC)ccn3)cc2)c(C(N)=O)n1N` [Example 38, (S)-1-amino-2-(1-(but-2-ynoyl)pyrrolidin-2-yl)-4-(4-((4-ethylpyridin-2-yl)carbamoyl)phenyl)-1H-imidazole-5-carboxamide], 1040 nM.

Compound `C=CC(=O)N1CCCC[C@H]1c1nc(-c2ccc(C(=O)Nc3cc(-c4ccccc4)ccn3)cc2)c(C(N)=O)n1N` [Example 65, (S)-2-(1-acryloylpiperidin-2-yl)-1-amino-4-(4-((4-phenylpyridin-2-yl)carbamoyl)phenyl)-1H-imidazole-5-carboxamide] came in with a concentration for half-maximal inhibition (IC50) of 5.06 nM.
